Test results: patent US7964531B2, “3-phenoxy-4-pyridazinol derivatives and herbicidal composition containing the same” (Mitsui Chemicals Agro, Inc., priority 2001, dated 2011)

Tests used:
Type in all cases: in vivo
[1] = tested on: corn; assay: Test Example 6: crop injury against corn (foliar treatment); conditions: after 14 days
Source text: (§1) Judgment Standard • 0: Growth inhibition rate; 0 to 9% • 1: Growth inhibition rate; 10 to 19% • 2: Growth inhibition rate; 20 to 29% • 3: Growth inhibition rate; 30 to 39% • 4: Growth inhibition rate; 40 to 49% • 5: Growth inhibition rate; 50 to 59% • 6: Growth inhibition rate; 60 to 69% • 7: Growth inhibition rate; 70 to 79% • 8: Growth inhibition rate; 80 to 89% • 9: Growth inhibition rate; 90 to 98% • 10: Growth inhibition rate; 99 to 100%.
(§2) Upland soil was filled in 150 cm^2 pot, and seeds of barnyardgrass, Cyperus esculentus L., velvetleaf, black nightshade, tall morningglory and corn were sowed, and grown in a greenhouse. After the weeds were grown with 10 to 15 cm or so, a predetermined chemical dosage of the wettable powder prepared in accordance with Preparation example 5 was diluted with water containing 0.05% of GRAMIN S and applied as a foliar treatment. After 14 days from the treatment, herbicidal effects and crop injury were judged in accordance with the judgment standard of Test example 5, and the results were shown in Tables 9 and 10. Incidentally, “-” in the table means no effective ingredient was contained.

[2] = tested on: corn; assay: Test Example 5: crop injury against corn (soil treatment); conditions: after 21 days
Protocol: (§3) Upland soil was filled in 150 cm^2 pot, and seeds of barnyardgrass, Cyperus esculentus L., velvetleaf, black nightshade, tall morningglory and corn were sowed, and grown in a greenhouse. At the next day of seeding, a predetermined chemical dosage of the wettable powder prepared in accordance with Preparation example 5 was diluted with water and applied to soil surface. After 21 days from the treatment, herbicidal effects and crop injury against corn were judged according to the following judgment standard, and the results were shown in Tables 6 to 8.
as §1

[3] = tested on: tall morningglory; assay: Test Example 6: herbicidal effects, upland (foliar treatment); conditions: after 14 days
Source text: as §1, §2

[4] = tested on: velvetleaf; assay: as above; conditions: after 14 days
Source text: as §1, §2

[5] = tested on: black nightshade; assay: as above; conditions: after 14 days
Source text: as §1, §2

[6] = tested on: Cyperus esculentus L.; assay: as above; conditions: after 14 days
Source text: as §1, §2

[7] = tested on: barnyardgrass; assay: as above; conditions: after 14 days
Source text: as §1, §2

[8] = tested on: tall morningglory; assay: Test Example 5: herbicidal effects, upland (soil treatment); conditions: after 21 days
Protocol: as §3, §1

[9] = tested on: velvetleaf; assay: as above; conditions: after 21 days
Protocol: as §3, §1

[10] = tested on: black nightshade; assay: as above; conditions: after 21 days
Protocol: as §3, §1

[11] = tested on: Cyperus esculentus L.; assay: as above; conditions: after 21 days
Protocol: as §3, §1

[12] = tested on: barnyardgrass; assay: as above; conditions: after 21 days
Protocol: as §3, §1

SMILES: CS(=O)(=O)c1ccc(C(=O)C2C(=O)CCCC2=O)c(Cl)c1 [Compound E, 2-(2-chloro-4-mesylbenzoyl)cyclohexan-1,3-dione]
- Crop injury against corn ([1]; E alone 50 g/ha): 0 (Growth inhibition rate; 0 to 9%)
- Crop injury against corn ([1]; E alone 100 g/ha): 0 (Growth inhibition rate; 0 to 9%)
- Crop injury against corn ([1]; E alone 200 g/ha): 0 (Growth inhibition rate; 0 to 9%)
- Crop injury against corn ([2]; E alone 50 g/ha): 0 (Growth inhibition rate; 0 to 9%)
- Crop injury against corn ([2]; E alone 100 g/ha): 0 (Growth inhibition rate; 0 to 9%)
- Crop injury against corn ([2]; E alone 200 g/ha): 0 (Growth inhibition rate; 0 to 9%)
- Herbicidal effects Tall Morningglory ([3]; E alone 50 g/ha): 6 (Growth inhibition rate; 60 to 69%)
- Herbicidal effects Tall Morningglory ([3]; E alone 100 g/ha): 7 (Growth inhibition rate; 70 to 79%)
- Herbicidal effects Tall Morningglory ([3]; E alone 200 g/ha): 9 (Growth inhibition rate; 90 to 98%)
- Herbicidal effects Velvetleaf ([4]; E alone 50 g/ha): 9 (Growth inhibition rate; 90 to 98%)
- Herbicidal effects Velvetleaf ([4]; E alone 100 g/ha): 10 (Growth inhibition rate; 99 to 100%)
- Herbicidal effects Velvetleaf ([4]; E alone 200 g/ha): 10 (Growth inhibition rate; 99 to 100%)
- Herbicidal effects Black Nightshade ([5]; E alone 50 g/ha): 9 (Growth inhibition rate; 90 to 98%)
- Herbicidal effects Black Nightshade ([5]; E alone 100 g/ha): 10 (Growth inhibition rate; 99 to 100%)
- Herbicidal effects Black Nightshade ([5]; E alone 200 g/ha): 10 (Growth inhibition rate; 99 to 100%)
- Herbicidal effects Cyperus esculentus ([6]; E alone 50 g/ha): 6 (Growth inhibition rate; 60 to 69%)
- Herbicidal effects Cyperus esculentus ([6]; E alone 100 g/ha): 7 (Growth inhibition rate; 70 to 79%)
- Herbicidal effects Cyperus esculentus ([6]; E alone 200 g/ha): 8 (Growth inhibition rate; 80 to 89%)
- Herbicidal effects Barnyard grass ([7]; E alone 50 g/ha): 1 (Growth inhibition rate; 10 to 19%)
- Herbicidal effects Barnyard grass ([7]; E alone 100 g/ha): 2 (Growth inhibition rate; 20 to 29%)
- Herbicidal effects Barnyard grass ([7]; E alone 200 g/ha): 7 (Growth inhibition rate; 70 to 79%)
- Herbicidal effects Tall Morningglory ([8]; E alone 50 g/ha): 6 (Growth inhibition rate; 60 to 69%)
- Herbicidal effects Tall Morningglory ([8]; E alone 100 g/ha): 7 (Growth inhibition rate; 70 to 79%)
- Herbicidal effects Tall Morningglory ([8]; E alone 200 g/ha): 10 (Growth inhibition rate; 99 to 100%)
- Herbicidal effects Velvetleaf ([9]; E alone 50 g/ha): 7 (Growth inhibition rate; 70 to 79%)
- Herbicidal effects Velvetleaf ([9]; E alone 100 g/ha): 7 (Growth inhibition rate; 70 to 79%)
- Herbicidal effects Velvetleaf ([9]; E alone 200 g/ha): 10 (Growth inhibition rate; 99 to 100%)
- Herbicidal effects Black Nightshade ([10]; E alone 50 g/ha): 7 (Growth inhibition rate; 70 to 79%)
- Herbicidal effects Black Nightshade ([10]; E alone 100 g/ha): 6 (Growth inhibition rate; 60 to 69%)
- Herbicidal effects Black Nightshade ([10]; E alone 200 g/ha): 9 (Growth inhibition rate; 90 to 98%)
- Herbicidal effects Cyperus esculentus ([11]; E alone 50 g/ha): 8 (Growth inhibition rate; 80 to 89%)
- Herbicidal effects Cyperus esculentus ([11]; E alone 100 g/ha): 8 (Growth inhibition rate; 80 to 89%)
- Herbicidal effects Cyperus esculentus ([11]; E alone 200 g/ha): 8 (Growth inhibition rate; 80 to 89%)
- Herbicidal effects Barnyard grass ([12]; E alone 50 g/ha): 7 (Growth inhibition rate; 70 to 79%)
- Herbicidal effects Barnyard grass ([12]; E alone 100 g/ha): 9 (Growth inhibition rate; 90 to 98%)
- Herbicidal effects Barnyard grass ([12]; E alone 200 g/ha): 10 (Growth inhibition rate; 99 to 100%)
